Test results from ChEMBL document CHEMBL3792354, “Design, synthesis and evaluation of novel ferulic acid-memoquin hybrids as potential multifunctional agents for the treatment of Alzheimer's disease” (Bioorg Med Chem Lett, 2016).

Experiments:
[1] = biological target: Cholinesterase (Equus caballus) (UniProt P81908); assay: Inhibition of equine serum BuChE at 50 uM pre-incubated for 15 mins before butylthiocholine chloride substrate addition by Ellman assay
Acetylcholinesterase = Acetylcholinesterase (Electrophorus electricus, UniProt O42275); assay: Inhibition of Electrophorus electricus AChE pre-incubated for 15 mins before acetylthiocholine chloride substrate addition by Ellman assay
Acetylcholinesterase, sequence (O42275 whole entry): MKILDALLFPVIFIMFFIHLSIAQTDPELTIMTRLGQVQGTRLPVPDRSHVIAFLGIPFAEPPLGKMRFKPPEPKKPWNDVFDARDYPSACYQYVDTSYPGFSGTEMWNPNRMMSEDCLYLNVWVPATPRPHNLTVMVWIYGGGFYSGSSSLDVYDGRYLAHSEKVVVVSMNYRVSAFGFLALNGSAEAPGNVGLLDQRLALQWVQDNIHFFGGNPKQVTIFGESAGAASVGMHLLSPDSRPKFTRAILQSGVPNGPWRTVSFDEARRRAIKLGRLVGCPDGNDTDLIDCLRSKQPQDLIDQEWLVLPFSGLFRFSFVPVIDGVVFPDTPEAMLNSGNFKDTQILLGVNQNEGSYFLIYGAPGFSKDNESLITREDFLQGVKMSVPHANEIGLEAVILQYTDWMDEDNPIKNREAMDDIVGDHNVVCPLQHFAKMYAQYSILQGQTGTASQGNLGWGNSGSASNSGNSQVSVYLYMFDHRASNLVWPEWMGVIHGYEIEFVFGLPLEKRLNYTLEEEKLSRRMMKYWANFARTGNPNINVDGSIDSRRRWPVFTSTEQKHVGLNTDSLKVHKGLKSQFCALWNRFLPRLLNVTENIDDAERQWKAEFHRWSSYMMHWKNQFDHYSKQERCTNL

[2] = biological target: Amyloid-beta precursor protein (Homo sapiens) (UniProt P05067); assay: Inhibition of self-induced amyloid beta (1 to 42) aggregation (unknown origin) at 25 uM by Thioflavin T-based fluorometric assay
Amyloid-beta precursor protein (Homo sapiens), sequence (P05067 whole entry): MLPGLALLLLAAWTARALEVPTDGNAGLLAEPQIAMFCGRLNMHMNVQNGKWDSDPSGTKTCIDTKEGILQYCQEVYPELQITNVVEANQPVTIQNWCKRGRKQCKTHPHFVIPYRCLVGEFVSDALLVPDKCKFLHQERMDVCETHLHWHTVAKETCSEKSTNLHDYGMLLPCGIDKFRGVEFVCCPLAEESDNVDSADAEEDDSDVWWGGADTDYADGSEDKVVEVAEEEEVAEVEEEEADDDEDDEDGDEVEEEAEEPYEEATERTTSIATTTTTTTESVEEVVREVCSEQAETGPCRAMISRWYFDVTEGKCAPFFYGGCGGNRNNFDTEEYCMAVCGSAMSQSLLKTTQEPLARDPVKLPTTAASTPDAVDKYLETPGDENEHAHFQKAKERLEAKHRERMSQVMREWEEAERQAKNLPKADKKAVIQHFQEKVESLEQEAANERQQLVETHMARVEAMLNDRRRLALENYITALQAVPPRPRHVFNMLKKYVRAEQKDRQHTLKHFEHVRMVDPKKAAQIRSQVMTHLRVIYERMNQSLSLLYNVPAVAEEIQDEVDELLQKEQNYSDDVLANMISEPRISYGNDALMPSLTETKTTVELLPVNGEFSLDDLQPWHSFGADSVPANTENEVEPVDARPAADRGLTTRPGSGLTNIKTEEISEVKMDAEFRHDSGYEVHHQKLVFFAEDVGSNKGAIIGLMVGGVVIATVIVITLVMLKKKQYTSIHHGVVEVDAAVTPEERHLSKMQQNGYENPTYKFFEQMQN

[3] = Antioxidant activity assessed as AAPH radical scavenging activity by measuring Trolox equivalent per microM of test compound measured every minute for 90 mins by ORAC-FL assay; type: physicochemical; conditions: 1.5 h
in vitro = conditions: PAMPA
Description: Permeability of the compound at 100 ug/ml by PAMPA-BBB assay

SH-SY5Y [4] = assay: Neuroprotective activity against hydrogen peroxide-induced cell injury in human SH-SY5Y cells assessed as cell viability at 1 uM incubated for 3 hrs after H2O2 exposure for 24 hrs by MTT assay; type: functional; conditions: read-out: Activity
SH-SY5Y [5] = assay: Neuroprotective activity against hydrogen peroxide-induced cell injury in human SH-SY5Y cells assessed as cell viability at 10 uM incubated for 3 hrs after H2O2 exposure for 24 hrs by MTT assay; type: functional; conditions: read-out: Activity
SH-SY5Y [6] = assay: Neuroprotective activity against hydrogen peroxide-induced cell injury in human SH-SY5Y cells assessed as cell viability incubated for 3 hrs after H2O2 exposure for 24 hrs by MTT assay; type: functional, cell-based
[7] = biological target: Amyloid-beta precursor protein (Homo sapiens) (UniProt P05067); assay: Inhibition of self-induced amyloid beta (1 to 42) aggregation (unknown origin) at 10 uM by Thioflavin T-based fluorometric assay
[8] = biological target: Amyloid-beta precursor protein (Homo sapiens) (UniProt P05067); assay: Inhibition of self-induced amyloid beta (1 to 42) aggregation (unknown origin) at 50 uM by Thioflavin T-based fluorometric assay
[9] = Toxicity in human SH-SY5Y cells assessed as cell viability at 10 uM incubated for 24 hrs by MTT assay; type: cell-based; conditions: read-out: Activity
[10] = biological target: Amyloid-beta precursor protein (Homo sapiens) (UniProt P05067); assay: Induction of disaggregation of self-induced amyloid beta (1 to 42) fibril formation (unknown origin) at 25 uM incubated for 24 hrs by Thioflavin T-based fluorometric assay
[11] = biological target: Amyloid-beta precursor protein (Homo sapiens) (UniProt P05067); assay: Inhibition of self-induced amyloid beta (1 to 42) aggregation (unknown origin) by Thioflavin T-based fluorometric assay

Cholinesterase (Equus caballus), sequence (P81908 whole entry): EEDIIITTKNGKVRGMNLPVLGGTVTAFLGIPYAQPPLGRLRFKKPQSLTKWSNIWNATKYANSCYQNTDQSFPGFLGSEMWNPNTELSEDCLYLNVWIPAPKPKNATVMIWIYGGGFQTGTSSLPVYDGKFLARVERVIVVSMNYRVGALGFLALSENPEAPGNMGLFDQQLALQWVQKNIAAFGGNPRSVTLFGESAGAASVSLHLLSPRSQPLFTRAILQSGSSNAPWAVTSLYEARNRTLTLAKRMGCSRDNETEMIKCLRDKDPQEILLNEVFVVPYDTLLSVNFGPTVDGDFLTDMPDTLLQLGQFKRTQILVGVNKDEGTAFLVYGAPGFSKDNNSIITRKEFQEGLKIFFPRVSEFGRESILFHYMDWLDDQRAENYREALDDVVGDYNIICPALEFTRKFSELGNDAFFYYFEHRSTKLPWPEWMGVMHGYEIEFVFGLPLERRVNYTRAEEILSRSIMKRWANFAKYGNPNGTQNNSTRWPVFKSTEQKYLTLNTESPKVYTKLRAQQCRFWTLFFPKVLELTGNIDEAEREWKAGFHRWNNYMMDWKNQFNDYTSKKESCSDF

SMILES	inhibition [1] [%]	IC50 (Acetylcholinesterase) [µM]	inhibition [2] [%]	Activity [3] [equiv]	also measured
COc1cc(/C=C/C(=O)NCCCN(C)Cc2ccccc2)ccc1O	< 5	34.7	39.1	1.2	–
CCN(CCCCCCNC1=CC(=O)C(NCCCCCCN(CC)Cc2ccccc2OC)=CC1=O)Cc1ccccc1OC [MEMOQUIN]	5.8	0.0067	72.7	–	–
COc1cc(/C=C/C(=O)NCCCCCCN(C)Cc2ccccc2)ccc1O	< 5	15.1	31.2	1.2	–
CCn1cc(C(=O)O)c(=O)c2cc(F)c(N3CCNC(C)C3)c(F)c21 (stereo not drawn) [LOMEFLOXACIN]	–	–	–	–	Papp at 100 ug/ml (in vitro): 0.52 ×10⁻⁶ cm/s
CCN(CCCCNC(=O)/C=C/c1ccc(O)c(OC)c1)Cc1ccccc1	< 5	16.5	33.8	1.1	–
CCN(CCCNC(=O)/C=C/c1ccc(O)c(OC)c1)Cc1ccccc1	< 5	31.4	33.3	0.9	–
CN1C(C(=O)Nc2ccccn2)=C(O)c2ccccc2S1(=O)=O [PIROXICAM]	–	–	–	–	Papp at 100 ug/ml (in vitro): 0.63 ×10⁻⁶ cm/s
CCN(CCCCCCNC(=O)/C=C/c1ccc(O)c(OC)c1)Cc1ccccc1	17.2	8.2	37.4	1.1	–
CCN(CCCCNC(=O)/C=C/c1ccc(O)c(OC)c1)Cc1ccccc1OC	< 5	8.6	38.3	1.3	–
CCN(CCCNC(=O)/C=C/c1ccc(O)c(OC)c1)Cc1ccccc1OC	31.4	15.9	35.2	1.1	–
COc1cc(/C=C/C(=O)NCCCCCCN(C)Cc2ccccc2OC)ccc1O	27.6	8.5	36.6	1.3	–
COc1cc(/C=C/C(=O)O)ccc1O [FERULATE]	< 5	> 100	28.3	1.1	–
COc1cc(/C=C/C(=O)NCCCN(C)Cc2ccccc2OC)ccc1O	15.8	25.1	30.8	1.3	–
CCN(CCCCCCNC(=O)/C=C/c1ccc(O)c(OC)c1)Cc1ccccc1OC	36.2	3.2	38.1	1.2	viability at 1 µM (SH-SY5Y [4]): 68.6%; Papp at 100 ug/ml (in vitro): 5.53 ×10⁻⁶ cm/s; viability at 10 µM (SH-SY5Y [5]): 88.3%; Activity (SH-SY5Y [6]): Dose-dependent effect; inhibition [7]: 26.8%; inhibition [8]: 49.3%; viability at 24 h, 10 µM [9]: 98.3%; Activity [10]: 45.5%; inhibition [11]: Dose-dependent effect
COc1cc(/C=C/C(=O)NCCCCN(C)Cc2ccccc2OC)ccc1O	34.6	18	32.5	1.2	–
COc1cc(/C=C/C(=O)CC(=O)/C=C/c2ccc(O)c(OC)c2)ccc1O	–	–	–	–	Activity [10]: 57.6%
COc1cc(/C=C/C(=O)NCCCCN(C)Cc2ccccc2)ccc1O	< 5	29.6	31.6	1.3	–
CC(=O)[C@H]1CC[C@H]2[C@@H]3CCC4=CC(=O)CC[C@]4(C)[C@H]3CC[C@]12C [PROGESTERONE]	–	–	–	–	Papp at 100 ug/ml (in vitro): 15.9 ×10⁻⁶ cm/s
